We go through nine molecules from US20100286233A1, “PERIPHERAL AND NEURAL INFLAMMATORY CROSSTALK” (University of Rochester, priority 2006, published 2010).

Read-outs that look alike come from different tables or passages of the source.

In one assay the test system is C2C12 cell line. Kind of assay: C2C12 conversion to osteoblastic phenotype, alkaline phosphatase histochemistry. The assay is classed as cell-based.
In assay [1] the test system is avian mesenchymal limb bud cells. The note with it: cited from earlier work.
Another assay relates to growth plate. The note with it: systemic injection; cited from earlier work.
For another assay, the system named is mice. The conditions noted are these: cited from earlier work.
The subject of another assay is μ-receptor. The conditions noted are these: in vivo; cited from earlier work.
The target of assay [2] is mouse recombinant DOR-1 receptor (Mus musculus, UniProt P32300). The conditions noted are these: cited from earlier work.
Sequence of mouse recombinant DOR-1 receptor (P32300 whole entry): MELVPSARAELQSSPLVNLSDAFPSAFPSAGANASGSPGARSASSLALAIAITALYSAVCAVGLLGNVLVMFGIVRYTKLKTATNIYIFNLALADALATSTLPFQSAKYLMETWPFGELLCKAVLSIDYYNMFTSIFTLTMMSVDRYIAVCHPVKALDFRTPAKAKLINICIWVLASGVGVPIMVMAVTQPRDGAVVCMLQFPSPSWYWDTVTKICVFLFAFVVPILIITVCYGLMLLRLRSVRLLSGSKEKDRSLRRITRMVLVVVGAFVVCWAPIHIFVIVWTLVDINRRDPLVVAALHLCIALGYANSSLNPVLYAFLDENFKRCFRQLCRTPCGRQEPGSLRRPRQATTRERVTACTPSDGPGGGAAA
The target of another assay is δ-receptors (Homo sapiens, UniProt P41143). The note with it: cited from earlier work.
Sequence of δ-receptors (P41143 whole entry): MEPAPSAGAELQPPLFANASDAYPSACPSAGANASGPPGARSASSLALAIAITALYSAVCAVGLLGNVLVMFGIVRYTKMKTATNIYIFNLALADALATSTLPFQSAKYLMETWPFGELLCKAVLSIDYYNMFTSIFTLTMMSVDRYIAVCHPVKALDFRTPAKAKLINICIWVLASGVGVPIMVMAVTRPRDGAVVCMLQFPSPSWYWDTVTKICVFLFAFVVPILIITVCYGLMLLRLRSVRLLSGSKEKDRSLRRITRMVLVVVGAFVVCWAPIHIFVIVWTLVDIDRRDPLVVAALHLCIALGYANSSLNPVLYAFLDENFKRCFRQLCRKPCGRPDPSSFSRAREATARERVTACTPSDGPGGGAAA
For a further assay, the target named is κ-receptors (Homo sapiens, UniProt P41145). The conditions noted are these: cited from earlier work.
Sequence of κ-receptors (P41145 whole entry): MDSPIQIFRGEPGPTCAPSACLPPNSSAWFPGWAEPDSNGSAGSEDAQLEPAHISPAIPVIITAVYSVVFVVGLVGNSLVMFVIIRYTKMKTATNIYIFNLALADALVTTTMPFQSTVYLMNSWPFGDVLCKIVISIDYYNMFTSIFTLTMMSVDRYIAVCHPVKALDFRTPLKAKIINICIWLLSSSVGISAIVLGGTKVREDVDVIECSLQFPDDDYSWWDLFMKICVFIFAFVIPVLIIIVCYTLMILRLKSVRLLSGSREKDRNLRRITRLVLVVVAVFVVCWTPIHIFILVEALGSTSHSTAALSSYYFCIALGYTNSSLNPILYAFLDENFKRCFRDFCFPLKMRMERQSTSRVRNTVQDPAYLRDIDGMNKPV
A further assay deals with μ-receptors (Homo sapiens, UniProt P35372). The conditions noted are these: cited from earlier work.
Sequence of μ-receptors (P35372 whole entry): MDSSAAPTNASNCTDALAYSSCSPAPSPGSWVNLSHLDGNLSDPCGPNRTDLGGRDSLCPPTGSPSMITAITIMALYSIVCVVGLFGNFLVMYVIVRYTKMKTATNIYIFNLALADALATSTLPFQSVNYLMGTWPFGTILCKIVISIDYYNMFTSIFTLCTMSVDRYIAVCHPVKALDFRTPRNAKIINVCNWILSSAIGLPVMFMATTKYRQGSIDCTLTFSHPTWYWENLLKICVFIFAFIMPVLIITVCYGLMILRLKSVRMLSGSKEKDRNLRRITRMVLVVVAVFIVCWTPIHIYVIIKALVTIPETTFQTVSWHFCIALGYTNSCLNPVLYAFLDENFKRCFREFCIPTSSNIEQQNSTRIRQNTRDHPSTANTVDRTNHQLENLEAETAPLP
Another assay relates to C57BL/6 mice. Kind of assay: Intracisternal IL-1β injection, brain stem IHC for GFAP and CGRP. The conditions noted are these: 2 ng in 2 μl into the cisterna magna, two days later. The assay is classed as in vivo, mouse. On the procedure:
Murine IL-1β (2 ng in 2 μl of normal saline) was injected […] in the cisterna magna of deeply anesthetized C57BL/6 mice (anesthetic: ketamine 40 mg/kg IP). Two days later, the mice were sacrificed, […] transcardially with 4% paraformaldehyde in phosphate buffered saline solution and the brain stem was harvested, frozed and cut at 18 μm thick horizontal sections which were collected on glass slides. The histology slides were then analyzed by immunohistochemistry (IHC) using antibodies raised against calcitonin gene-related peptide (CGRP; […]) and glial fibrillary acidic protein (GFAP; Dako).

The mark [3] stands for this setting: MOR-1 knockout mice, disruption in exon-1.

Description for C2C12 cell line: In vitro studies: The C2C12 cell line, an in vitro model of chondrocyte differentiation and maturation, was obtained from ATCC and cultured in DMEM plus 10% normal bovine serum for 4 days as previously described (Katagiri, T., et al. 1994). In addition, cells were treated with BMP-2 (300 ng/mL) or alternatively with BMP-2 plus PGE2 (10^−8M) or recombinant IL-1β (10 ng/mL) or butaprost (10^−8M) in the culture medium. At the end of the experiment, cells were fixed with 10% formalin. Alkaline phosphatase expression was evaluated using the BCIP/NBT histochemistry method (Vector Labs, Burlingame Calif.). Positively-stained cells were counted in 10 random 20× fields using an inverted Olympus CK41 microscope.

In the case of `CCCCC[C@H](O)/C=C/[C@H]1[C@H](O)CC(=O)[C@@H]1C/C=C\CCCC(=O)O` [PGE2, prostaglandin E2], in the assay on C2C12 cell line (BMP-2 plus PGE2 (10^-8M), 4 days, versus BMP-2), the “increase in the number of cells expressing alkaline phosphatase” value was “approximately 5 fold”. The “conversion of differentiating C2C12 cells to an osteoblastic phenotype” value in the assay on C2C12 cell line (under the stimulus of BMP-2) is given as “acceleration of their conversion to an osteoblastic phenotype”. In addition, the chondrogenesis entry in assay [1] was “enhances chondrogenesis”; in [1] (in the presence of indomethacin), “stimulates chondrogenesis”. Moreover, the “growth plate and limb growth” value with growth plate is “thinner growth plate with decreased size of hypertrophic chondrocytes and reduced limb growth”.

For the molecule `CC(=O)Oc1ccc2c3c1O[C@H]1[C@@H](OC(C)=O)C=C[C@H]4[C@@H](C2)N(C)CC[C@@]341` [heroin], the figures for the antinociception entry with mice (setting [3]) and in the assay with mice (mice of the CXBX strain) were “still produce antinociception” and “potently antinociceptive”, respectively.

`COc1ccc2c(c1)c(CC(=O)O)c(C)n2C(=O)c1ccc(Cl)cc1` [indomethacin]: the chondrogenesis entry in assay [1] is “inhibit chondrogenesis”.

`CN1CC[C@]23c4c5ccc(O)c4O[C@H]2[C@@H](O[C@@H]2O[C@H](C(=O)O)[C@@H](O)[C@H](O)[C@H]2O)C=C[C@H]3[C@H]1C5` [morphine-6b-glucuronide]: the antinociception entry is given as “still produce antinociception” with mice (setting [3]) and “potently antinociceptive” in the assay on mice (mice of the CXBX strain).

As to `CN1CC[C@]23c4c5ccc(O)c4O[C@H]2[C@@H](O)C=C[C@H]3[C@H]1C5` [morphine], the antinociception entry is reported as “not” in the assay on mice (setting [3]) and “poor antinociceptive agent” in the assay with mice (mice of the CXBX strain).

`C=CCN1CC[C@]23c4c5ccc(O)c4O[C@H]2/C(=N\N)CC[C@@]3(O)[C@H]1C5` [naloxazone]: in the assay with μ-receptor, the “induction of morphine dependence” value was “did not block”, the morphine-induced antinociception entry was “selectively blocked” and the morphine-induced respiratory depression result was “did not block”.

As for `Oc1ccc2c3c1O[C@H]1c4oc5ccccc5c4C[C@@]4(O)[C@@H](C2)N(CC2CC2)CC[C@]314` [naltriben, Naltriben], in [2], the “displacement of [3H]-diprenorphine binding” value is listed as “more highly displaced by naltriben than BNTX”.

For the molecule “β-endorphin: endogenous opioid peptide from pro-opiomelanocortin, SEQ ID NO: 129”, the “affinity for δ-receptors” value with δ-receptors was “equiactive at μ- and δ-receptors”. The “affinity for κ-receptors” value in the assay with κ-receptors was “much lower affinity”. In the assay with μ-receptors, the “affinity for μ-receptors” value was “equiactive at μ- and δ-receptors”.

B1: IL-1β: murine interleukin-1β cytokine injected into the cisterna magna (protein, UniProt P10749 118-269, looked up)
Interleukin-1 beta: VPIRQLHYRLRDEQQKSLVLSDPYELKALHLNGQNINQQVIFSMSFVQGEPSNDKIPVALGLKGKNLYLSCVMKDGTPTLQLESVDPKQYPKKKMEKRFVFNKIEVKSKVEFESAEFPNWYISTSQAEHKPVFLGNNSGQDIIDFTMESVSS
With B1, in the assay with C57BL/6 mice, the “expression of CGRP in the descending trigeminal nucleus (medullary dorsal horn)” value is “induced” and the “expression of GFAP in the descending trigeminal nucleus (medullary dorsal horn)” value was “induced”.
